Converted amounts (≈) assume the structure as drawn. Values belong to the compound of their own block, whether it stands above or below them.
What was measured:
Staphylococcus aureus [1] = test: Antibiofilm activity against Staphylococcus aureus ATCC 33862 assessed as reduction in biofilm formation at 20 uM incubated for 24 hrs by absorbance based assay relative to control; type: functional; set-up: scale not given: the % may be the effect or the level left
Pseudomonas aeruginosa [2] = test: Antibiofilm activity against Pseudomonas aeruginosa ATCC 10145 assessed as reduction in biofilm formation at 20 uM incubated for 24 hrs by absorbance based assay relative to control; type: functional; set-up: scale not given: the % may be the effect or the level left
Staphylococcus aureus [3] = test: Antibacterial activity against Staphylococcus aureus ATCC 25923 assessed as reduction in bacterial growth incubated for 18 to 24 hrs by broth microdilution method; type: functional; conditions: time 18-24 hrs
Staphylococcus aureus [4] = test: Antibacterial activity against Staphylococcus aureus ATCC 29213 assessed as reduction in bacterial growth incubated for 18 to 24 hrs by broth microdilution method; type: functional; conditions: time 18-24 hrs
Staphylococcus aureus [5] = test: Antibacterial activity against Staphylococcus aureus ATCC 6538 assessed as reduction in bacterial growth incubated for 18 to 24 hrs by broth microdilution method; type: functional; conditions: time 18-24 hrs
[6] = system: Staphylococcus epidermidis; test: Antibacterial activity against Staphylococcus epidermidis RP62A assessed as reduction in bacterial growth incubated for 18 to 20 hrs by broth microdilution assay; type: functional; conditions: time 18-20 hrs
[7] = Inhibition of Staphylococcus aureus sortase A by FRET assay
Klebsiella pneumoniae = test: Antibiofilm activity against Klebsiella pneumoniae ATCC 13882 assessed as inhibition of biofilm formation incubated for 24 hrs by crystal violet staining based broth microdilution method; type: functional, organism-based; conditions: ATCC 13882, 24 h
Pseudomonas aeruginosa [8] = test: Antibiofilm activity against Pseudomonas aeruginosa PAO1 assessed as inhibition of biofilm formation incubated at 15 uM relative to control; type: functional; set-up: scale not given: the % may be the effect or the level left
Enterococcus faecalis [9] = test: Antibacterial activity against Enterococcus faecalis ATCC 29212 assessed as bacterial growth inhibition incubated for 15 to 18 hrs by Muller hinton broth based dilution assay; type: functional; conditions: time 15-18 hrs
Enterococcus faecalis [10] = test: Antibiofilm activity against Enterococcus faecalis ATCC 29212 assessed as biofilm eradication incubated for 20 mins by crystal violet staining based analysis; type: functional
Staphylococcus aureus [11] = test: Antibiofilm activity against methicillin-resistant Staphylococcus aureus assessed as inhibition of biofilm formation incubated for overnight by crystal violet staining based microtiter plate assay; type: functional, organism-based
Pseudomonas aeruginosa [12] = test: Antibiofilm activity against Pseudomonas aeruginosa PAO1 assessed as reduction in biofilm formation at 100 uM incubated for 24 hrs by crystal violet staining based analysis relative to control; type: functional; set-up: scale not given: the % may be the effect or the level left
[13] = Inhibition of quorum sensing system in Pseudomonas aeruginosa PA14 assessed as inhibition of pyocyanin production
Staphylococcus aureus [14] = test: Antibiofilm activity against Methicillin-resistant Staphylococcus aureus ATCC BAA-4A assessed as inhibition of biofilm formation; type: functional, organism-based
Pseudomonas aeruginosa [15] = test: Antibiofilm activity against Pseudomonas aeruginosa PA14 assessed as inhibition of biofilm formation incubated for 24 hrs by microscopic analysis; type: functional, organism-based; conditions: PA14, 24 h
[16] = Inhibition of quorum sensing system in Pseudomonas aeruginosa PAO1 assessed as inhibition of pyocyanin production at 256 ug/ml incubated for 24 hrs by absorbance based assay
Pseudomonas aeruginosa [17] = test: Antibiofilm activity against Pseudomonas aeruginosa PAO1 assessed as inhibition of biofilm formation at 100 uM relative to control; type: functional; set-up: scale not given: the % may be the effect or the level left
Pseudomonas aeruginosa [18] = test: Antibiofilm activity against Pseudomonas aeruginosa PAO1 assessed as inhibition of biofilm formation incubated at 100 uM incubated for 24 hrs by crystal violet staining based analysis relative to control; type: functional; set-up: scale not given: the % may be the effect or the level left
Pseudomonas aeruginosa [19] = test: Antibiofilm activity against Pseudomonas aeruginosa PAO1 assessed as inhibition of biofilm formation at 64 microg/ml incubated for 24 hrs by BacTiter Glo reagent based luminescence analysis relative to control; type: functional; set-up: scale not given: the % may be the effect or the level left; conditions: dose 64 µg/ml
Pseudomonas aeruginosa [20] = test: Antibacterial activity against Pseudomonas aeruginosa 27853 assessed as inhibition of bacterial growth at 32 microg/ml incubated for 24 hrs in presence of Ciprofloxacin by absorbance based microplate reader analysis relative to control; type: functional; set-up: scale not given: the % may be the effect or the level left; conditions: dose 32 µg/ml
Pseudomonas aeruginosa [21] = test: Antibacterial activity against Pseudomonas aeruginosa 27853 assessed as inhibition of bacterial growth at 32 microg/ml incubated for 24 hrs in presence of Clarithromycin by absorbance based microplate reader analysis relative to control; type: functional; set-up: scale not given: the % may be the effect or the level left; conditions: dose 32 µg/ml
Pseudomonas aeruginosa [22] = test: Anti-motility activity against Pseudomonas aeruginosa PAO1 assessed as reduction in swarming at 20 uM incubated for 16 hrs by crystal violet staining analysis relative to control; type: functional; set-up: scale not given: the % may be the effect or the level left
[23] = system: Staphylococcus epidermidis; test: Antibiofilm activity against Staphylococcus epidermidis assessed as inhibition of biofilm formation at 40 uM measured after 24 hrs by confocal laser scanning microscopy analysis relative to control; type: functional; set-up: scale not given: the % may be the effect or the level left
Pseudomonas aeruginosa [24] = test: Antibiofilm activity against Pseudomonas aeruginosa ATCC 27853 assessed as inhibition of biofilm formation at 0.5 times of MIC by crystal violet staining based analysis relative to control; type: functional; set-up: scale not given: the % may be the effect or the level left
Pseudomonas aeruginosa [25] = test: Antibiofilm activity against Pseudomonas aeruginosa PAO1 assessed as inhibition of biofilm formation incubated at 50 uM incubated for 24 hrs by crystal violet staining based analysis relative to control; type: functional; set-up: scale not given: the % may be the effect or the level left
[26] = molecular target: T1, Transcriptional regulator MvfR (Pseudomonas aeruginosa PA14, UniProt A0A072ZLE6); test: Inhibition of PqsR-mediated quorum sensing system in Pseudomonas aeruginosa PAO1 assessed as reduction in pyocyanin production
T1 sequence (A0A072ZLE6 whole entry): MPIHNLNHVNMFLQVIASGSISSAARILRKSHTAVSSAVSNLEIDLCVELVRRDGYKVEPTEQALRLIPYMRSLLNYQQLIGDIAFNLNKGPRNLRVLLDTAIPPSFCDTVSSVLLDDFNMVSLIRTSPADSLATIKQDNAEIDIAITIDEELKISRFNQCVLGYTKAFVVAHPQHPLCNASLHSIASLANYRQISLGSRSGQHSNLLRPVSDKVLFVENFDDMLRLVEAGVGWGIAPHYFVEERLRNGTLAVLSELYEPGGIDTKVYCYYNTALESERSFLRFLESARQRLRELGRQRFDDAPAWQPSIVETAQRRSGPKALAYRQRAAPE

Staphylococcus aureus [27] = test: Antibiofilm activity against Staphylococcus aureus ATCC 25923 at 25 ug/ml measured after 24 hrs by crystal violet staining based analysis relative to control; type: functional; conditions: dose 25 µg/ml

Compound: CCCCCCCCCCCCCCCC(=O)Nc1cc(=O)c2ccccc2[nH]1
Activity (Staphylococcus aureus [1]): >=50%
Activity (Pseudomonas aeruginosa [2]): >=50%

MIC (Staphylococcus aureus [3]): > 270 µM
MIC (Staphylococcus aureus [4]): > 270 µM
MIC (Staphylococcus aureus [5]): > 270 µM
MIC [6]: > 270 µM
IC50 [7]: 87 µM
Compound: CC(=O)/C(=N\Nc1cccc(Cl)c1)C(=O)O

IC50 (Klebsiella pneumoniae): 26.4 µM
Compound: Nc1nccc(-c2cccc(NC(=O)c3cc(Cl)cc(Cl)c3)c2)n1

Compound: Cc1cccc(NC(=O)CC(=O)CSC(=S)N[C@@H]2CCOC2=O)c1
Activity (Pseudomonas aeruginosa [8]): 35%

Compound: CCCCCCCCCCCC(=O)Nc1c(N)[nH]c2ccccc2c1=O
Activity (Staphylococcus aureus [1]): >=50%
Activity (Pseudomonas aeruginosa [2]): >=50%

MIC (Enterococcus faecalis [9]): 0.062 µg/mL (≈ 0.145 µM)
Compound: COc1ccc(-c2csc(-c3ccc(-c4cnc(-c5ccccc5)s4)cc3)n2)cc1
MBEC (Enterococcus faecalis [10]): 0.004 µg/mL

Compound: CCCCOc1ccc(/C=C(\C)Cn2cc(CCCCCc3c[nH]c(N)n3)nn2)cc1
IC50 (Staphylococcus aureus [11]): < 10 µM

IC50 [13]: 8 µM
Compound: O=C(CCCOc1cccc(Br)c1)NC1CCSC1=O (stereo not given)
Activity (Pseudomonas aeruginosa [12]): 62%

Compound: COc1cccc(NC(=O)CC(=O)CSC(=S)N[C@@H]2CCOC2=O)c1
Activity (Pseudomonas aeruginosa [8]): 35%

Compound: CCCCCc1ccc(C(=O)NCCn2cc(CCCCCc3[nH]cnc3-c3cnc4ccccc4c3)nn2)cc1
IC50 (Staphylococcus aureus [14]): 3.7 µM

Compound: O=C(CSC(=S)N[C@@H]1CCOC1=O)CC(=O)Nc1cccc2ccccc12
Activity (Pseudomonas aeruginosa [8]): 35%

IC50 (Pseudomonas aeruginosa [15]): 60 µM
Compound: CCCCCCN(CCCCCC)C(=O)CCCc1c[nH]c(N)n1

IC50 [16]: 27 µM
Compound: COC(=O)c1ccnc(C(F)F)c1
Activity (Pseudomonas aeruginosa [17]): 85%

Compound: O=C(CCCNc1ccc(F)cc1)NC1CCOC1=O (stereo not given)
Activity (Pseudomonas aeruginosa [18]): 70%

Compound: COc1ccc(OCCCCCCCC(=O)NNC(=O)Cn2c(=O)oc3ncccc32)cc1
inhibition ([16]; dose 256.0 µg/ml): 53%
Activity (Pseudomonas aeruginosa [19]): 40%
Activity (Pseudomonas aeruginosa [20]): 48.27%
Activity (Pseudomonas aeruginosa [21]): 49.79%

Compound: CCOC(=O)C1S/C(=N\N=C\c2cccc(Cl)c2)N(c2ccc(S(N)(=O)=O)cc2)C1=O (stereo not given)
Activity (Pseudomonas aeruginosa [22]): 72%
Activity [23]: 80%

IC50 [13]: 12 µM
Compound: NCCCCCCCCCCCCNc1ccnc2cc(Cl)ccc12
Activity (Pseudomonas aeruginosa [24]): 85%

Compound: O=C(CCCNc1ccc(Cl)cc1)NC1CCOC1=O (stereo not given)
Activity (Pseudomonas aeruginosa [18]): 70%

Compound: CCCCCCCCCCCCCC(=O)Nc1cc(=O)c2ccccc2[nH]1
Activity (Staphylococcus aureus [1]): >=50%
Activity (Pseudomonas aeruginosa [2]): >=50%

Compound: O=C(CCCCCCCCCN=C=S)CC(=O)N[C@H]1CCOC1=O
Activity (Pseudomonas aeruginosa [25]): 50%

Compound: Clc1ccc2c(NCCCCCCCCNCc3cc4ccccc4o3)ccnc2c1
IC50 [26]: 25 µM

IC50 (Pseudomonas aeruginosa [15]): 16 µM
Compound: CCCCCCC(CCCCCC)NC(=O)CCCc1c[nH]c(N)n1

Compound: CCCCCc1ccc(C(=O)NCCn2cc(CCCCCc3c[nH]c(N)n3)nn2)cc1
IC50 (Staphylococcus aureus [11]): < 7.2 µM

IC50 [13]: 50 µM
Compound: NCCCCCCCCCCCCNc1ccnc2cc(C(F)(F)F)ccc12
Activity (Pseudomonas aeruginosa [24]): 75%

MIC (Enterococcus faecalis [9]): 0.125 µg/mL (≈ 0.315 µM)
Compound: c1ccc(-c2csc(-c3ccc(-c4cnc(-c5ccccc5)s4)cc3)n2)cc1
MBEC (Enterococcus faecalis [10]): 0.002 µg/mL

Compound: Cc1nn(C)c(NC(=O)c2ccc([N+](=O)[O-])cc2)c1[N+]#N
Activity (Staphylococcus aureus [27]): 96%

Compound: CN(C)c1cccc(/C=N/N=C2\SCC(=O)N2c2ccc(S(N)(=O)=O)cc2)c1
Activity (Pseudomonas aeruginosa [22]): 70%
Activity [23]: 70%

— ChEMBL document CHEMBL5512599, “Synthetic non-toxic anti-biofilm agents as a strategy in combating bacterial resistance” (Eur J Med Chem, 2023)
